A word on the pEC50: it is the negative decadic logarithm of the EC50, by convention in mol/L. A low value points to a large EC50. What is called Cmax is the peak of the concentration-time curve. What is called bioavailability is dose-corrected exposure relative to a reference, in per cent. Usually half-life stands for the time needed for the level to fall by half in the phase considered.

Data set [1] deals with T1, Oxysterols receptor LXR-alpha (Homo sapiens, UniProt Q13133).
T1 sequence (Q13133 whole entry): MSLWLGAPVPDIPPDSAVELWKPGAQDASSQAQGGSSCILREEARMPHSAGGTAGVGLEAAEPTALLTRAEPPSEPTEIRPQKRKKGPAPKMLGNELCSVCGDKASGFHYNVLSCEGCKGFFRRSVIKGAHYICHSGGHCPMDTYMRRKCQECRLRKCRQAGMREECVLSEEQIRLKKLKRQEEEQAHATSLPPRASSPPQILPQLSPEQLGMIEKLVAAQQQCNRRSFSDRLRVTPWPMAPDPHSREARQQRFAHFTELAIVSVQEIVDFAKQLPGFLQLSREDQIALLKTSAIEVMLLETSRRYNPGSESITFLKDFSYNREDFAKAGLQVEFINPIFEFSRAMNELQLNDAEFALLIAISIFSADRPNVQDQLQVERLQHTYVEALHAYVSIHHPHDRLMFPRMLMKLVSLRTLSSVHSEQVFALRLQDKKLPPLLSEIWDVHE
The experiment in a line: Ligand-dependent recruitment of steroid receptor co-activator 1 (SRC1) to Liver X receptor-alpha.

The target of data set [2] is T2, Oxysterols receptor LXR-alpha (Homo sapiens) (UniProt Q13133).
T2 sequence (whole entry): T1 sequence (Q13133 whole entry)
Description: Relative efficacy compared to 24(S),25-epoxy cholesterol in Liver X receptor-alpha ligand-sensing assay

The target in data set [3] is T1, Oxysterols receptor LXR-alpha. The experiment in a line: Effective concentration in LXR alpha-Gal4 receptor gene assay.
The target of data set [4] is T2, Oxysterols receptor LXR-alpha (Homo sapiens). The source holds these as a separate data set.
Description: Relative efficacy compared to 24(S),25-epoxy cholesterol in LXR alpha-Gal4 receptor gene assay
For data set [5] the target is unchanged. Put plainly: Effective concentration in LXR alpha-Gal4 receptor gene assay; inactive at 10 uM.
The nature of data set [6]: Cmax in mice after 10 mg/kg oral dose. Type of data set: ADME, organism-based. Also noted: dose 10 mg/kg, route oral. Particulars: mouse, in vivo.
The nature of data set [7]: Oral bioavailability after administration of a dose of 10 mg/kg. Type of data set: ADME, organism-based. Particulars: in vivo.
Data set [8] is described as follows: the half-life (t1/2) in mice after a dose of 10 mg/kg. Also noted: dose 10 mg/kg. Conditions: mouse, in vivo. The data set is classed as ADME, organism-based.

Molecules are shown by their SMILES. pEC50: −log10 of the molar value. Activity calls are given as the source filed them.

In data set [1], `COc1ccc(CN(CCCOc2cccc(C(N)=O)c2)CC(c2ccccc2)c2ccccc2)cc1OC` had a pEC50 of 6.59. The compound further yielded an RE in data set [2] of 0.2.

For the compound `NC(=O)Cc1cccc(OCCCN(Cc2ccc(F)c(C(F)(F)F)c2)CC(c2ccccc2)c2ccccc2)c1`, the pEC50 in data set [1] was 7.07; in data set [3], 6.02. Also, the RE stood at 0.4 in data set [4] and 0.9 in data set [2].

In the case of `COc1ccc(CN(CCCOc2cccc(CC(N)=O)c2)CC(c2ccccc2)c2ccccc2)cc1`, the pEC50 in data set [1] is 6.59. Besides, the IA result in data set [5] is “inactive”. In addition, the RE in data set [2] was found to be 0.8.

Regarding `COc1ccc(CN(CCCOc2cccc(CC(N)=O)c2)CC(c2ccccc2)c2ccccc2)c(F)c1`, the pEC50 in data set [1] was 6.72; in data set [3] it was 6.15. Besides, the RE in data set [4] worked out at 0.4; in data set [2], 0.9.

For `NC(=O)Cc1cccc(OCCCN(Cc2cccc(C(F)(F)F)c2)CC(c2ccccc2)c2ccccc2)c1`, the values for the negative-log EC50 (pEC50) in data set [1] and in data set [3] were 7.07 and 6.19, respectively. Also, the values for the RE in data set [4] and in data set [2] were 0.3 and 0.7, respectively.

As for `COc1ccc(CN(CCCOc2cccc(CC(=O)O)c2)CC(c2ccccc2)c2ccccc2)cc1`, the pEC50 was 6.07 in data set [1] and 5.10 in data set [3]. Also, the results for the RE in data set [4] and in data set [2] were 0.9 and 0.8, respectively.

For `O=S(=O)(c1ccccc1)N(CC(F)(F)F)c1ccc(C(O)(C(F)(F)F)C(F)(F)F)cc1`, the RE in data set [4] was 2.5; in data set [2], 1.

For `C[C@H](CC[C@@H]1OC1(C)C)[C@H]1CC[C@H]2[C@@H]3CC=C4C[C@@H](O)CC[C@]4(C)[C@H]3CC[C@]12C` [24(S),25-EPOXYCHOLESTEROL], the negative-log EC50 (pEC50) was 7.02 in data set [1] and 5.52 in data set [3]. In addition, the RE in data set [4] and in data set [2] was 1 in each case.

Turning to `COc1ccc(CN(CCCOc2cccc(CC(N)=O)c2)CC(c2ccccc2)c2ccccc2)cc1F`, the results for the pEC50 in data set [1] and in data set [3] were 6.60 and 6.04, respectively. Further, the results for the RE in data set [4] and in data set [2] were 0.5 and 0.7, respectively.

Take `COc1ccc(CN(CCCOc2cccc(CC(N)=O)c2)CC(c2ccccc2)c2ccccc2)c(OC)c1`: the pEC50 in data set [1] is 6.18; in data set [3] it was 5.40. The RE in data set [4] stood at 0.6; in data set [2], 0.7.

Regarding `O=C(O)Cc1cccc(OCCCN(Cc2cccc(C(F)(F)F)c2Cl)CC(c2ccccc2)c2ccccc2)c1`, the concentration in data set [6] peaked (Cmax) at 12700 ng/mL. In addition, in data set [7], the bioavailability was determined as 70%. Further, the half-life in data set [8] is 2 h. Also, the figures for the pEC50 in data set [1] and in data set [3] were 6.90 and 6.72, respectively. Besides, the RE worked out at 1.7 in data set [4] and 1 in data set [2].

As for `NC(=O)Cc1cccc(OCCCN(Cc2cccc(C(F)(F)F)c2Cl)CC(c2ccccc2)c2ccccc2)c1`, the results for the pEC50 in data set [1] and in data set [3] were 7.35 and 6.37, respectively. In addition, the RE in data set [4] was 1.5; in data set [2] it was 1.1.

The values above are taken from ChEMBL document CHEMBL1135404, “Identification of a nonsteroidal liver X receptor agonist through parallel array synthesis of tertiary amines” (J Med Chem, 2002).
